From US8569292B2, “Cyclic inhibitors of 11β-hydroxysteroid dehydrogenase 1” (Vitae Pharmaceuticals, Inc., priority 2008, dated 2013)

Experiments:
[1] = molecular target: CYP3A4 (Homo sapiens, UniProt P08684); assay: Biological Test Example 6: CYP3A4 inhibition (erythromycin N-demethylation); type: in vitro ADME
[2] = molecular target: T1, CYP2C9 (Homo sapiens, UniProt P11712); assay: Biological Test Example 7: CYP2C9 inhibition (naproxen O-demethylation); type: in vitro ADME
T1 construct: purchased Invitrogen 2859; host or cells: insect cells infected with baculovirus (microsomes)
T1 sequence (P11712 whole entry): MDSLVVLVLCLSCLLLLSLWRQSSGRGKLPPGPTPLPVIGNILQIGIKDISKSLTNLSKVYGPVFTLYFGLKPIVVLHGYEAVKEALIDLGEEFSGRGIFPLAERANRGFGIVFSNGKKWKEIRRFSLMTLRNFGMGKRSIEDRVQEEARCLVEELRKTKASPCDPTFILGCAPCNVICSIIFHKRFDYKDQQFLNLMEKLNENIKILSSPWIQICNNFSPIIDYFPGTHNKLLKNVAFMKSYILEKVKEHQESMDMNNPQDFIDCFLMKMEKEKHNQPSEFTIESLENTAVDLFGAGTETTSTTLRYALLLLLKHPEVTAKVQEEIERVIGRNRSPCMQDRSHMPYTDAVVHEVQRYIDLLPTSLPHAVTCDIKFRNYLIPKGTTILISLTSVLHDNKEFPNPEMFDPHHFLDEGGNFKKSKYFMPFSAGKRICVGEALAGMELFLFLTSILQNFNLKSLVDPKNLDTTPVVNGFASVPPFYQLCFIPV

[3] = molecular target: T2, 11β-HSD1 (Homo sapiens, UniProt P28845); assay: biochemical; settings: for inhibition at 0.1 µM: read-out: Average % inhibition at 100 nM
T2 sequence (P28845 whole entry): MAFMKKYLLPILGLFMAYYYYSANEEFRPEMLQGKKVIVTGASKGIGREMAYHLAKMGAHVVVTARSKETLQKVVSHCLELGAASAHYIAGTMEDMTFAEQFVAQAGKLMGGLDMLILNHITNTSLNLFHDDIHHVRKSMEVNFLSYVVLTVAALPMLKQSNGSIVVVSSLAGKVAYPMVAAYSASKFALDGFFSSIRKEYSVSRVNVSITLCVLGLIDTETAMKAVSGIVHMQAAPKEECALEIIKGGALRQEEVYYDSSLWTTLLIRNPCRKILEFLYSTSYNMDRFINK

[4] = molecular target: T2, 11β-HSD1; assay: Biological Test Example 4: microsomal 11β-HSD1 in the presence of 50% human plasma; settings: for Shift: IC50 in Test Example 4 divided by IC50 in Test Example 1
[5] = molecular target: CYP2C19 (Homo sapiens, UniProt P33261); assay: Biological Test Example 8: CYP2C19 inhibition (diazepam N-demethylation); type: in vitro ADME
Sequence of CYP2C19 (P33261 whole entry): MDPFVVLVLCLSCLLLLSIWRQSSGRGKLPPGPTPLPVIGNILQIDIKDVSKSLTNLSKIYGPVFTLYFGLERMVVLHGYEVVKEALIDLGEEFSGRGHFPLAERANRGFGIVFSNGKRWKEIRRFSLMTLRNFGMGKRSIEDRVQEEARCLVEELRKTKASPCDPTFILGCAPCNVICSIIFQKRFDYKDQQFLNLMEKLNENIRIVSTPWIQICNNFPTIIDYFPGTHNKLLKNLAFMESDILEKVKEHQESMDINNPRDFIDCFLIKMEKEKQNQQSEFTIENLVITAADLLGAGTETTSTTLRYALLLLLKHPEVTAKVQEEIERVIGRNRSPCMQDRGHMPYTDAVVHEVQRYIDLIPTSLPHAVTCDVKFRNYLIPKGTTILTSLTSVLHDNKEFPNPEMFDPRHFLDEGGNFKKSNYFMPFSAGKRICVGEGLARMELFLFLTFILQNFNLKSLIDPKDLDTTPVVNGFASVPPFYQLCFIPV

[6] = Biological Test Example 1 IC50 (nM)
[7] = IC50 Range, Biological Test Example 1

Sequence of CYP3A4 (P08684 whole entry): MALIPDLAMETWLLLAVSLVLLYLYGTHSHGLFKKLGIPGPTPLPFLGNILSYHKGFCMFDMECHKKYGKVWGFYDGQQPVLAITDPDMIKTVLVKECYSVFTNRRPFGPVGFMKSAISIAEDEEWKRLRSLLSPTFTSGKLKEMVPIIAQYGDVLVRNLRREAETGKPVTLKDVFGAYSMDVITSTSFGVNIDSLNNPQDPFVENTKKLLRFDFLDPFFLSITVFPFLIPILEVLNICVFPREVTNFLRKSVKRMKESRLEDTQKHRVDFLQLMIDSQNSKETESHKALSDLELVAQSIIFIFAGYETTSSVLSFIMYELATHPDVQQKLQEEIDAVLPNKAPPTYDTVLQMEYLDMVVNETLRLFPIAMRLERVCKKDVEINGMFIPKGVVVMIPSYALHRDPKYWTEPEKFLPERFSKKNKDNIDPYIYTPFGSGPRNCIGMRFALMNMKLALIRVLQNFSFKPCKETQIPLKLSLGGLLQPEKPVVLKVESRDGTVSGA

Row | Structure (SMILES) | IC50 [1] [µM] | IC50 [2] [µM] | IC50 [3, 6] [nM] | IC50 [3, 7] [nM] | inhibition at 0.1 µM [3] [%] | IC50 [4] [µM] | IC50 [5] [µM] | Shift [4]
1 | Cc1ccc(-c2ccc([C@H](C)N3CC[C@](CC(C)(C)O)(c4ccc(F)cc4)OC3=O)cc2)nn1 [EXAMPLE 155, (S)-6-(4-fluorophenyl)-6-(2-hydroxy-2-methylpropyl)-3-((S)-1-(4-(6-methylpyridazin-3-yl)phenyl)ethyl)-1,3-oxazinan-2-one] | > 50 | 38.9 | 2.1 | < 100 | 94.7 | 0.0064 | > 50 | 3.0
2 | C[C@@H](c1ccc(-c2cnc(C(=O)NC3CC3)nc2)cc1)N1CC[C@](CC(C)(C)O)(c2ccccc2)OC1=O [EXAMPLE 15, N-cyclopropyl-5-(4-((S)-1-((S)-6-(2-hydroxy-2-methylpropyl)-2-oxo-6-phenyl-1,3-oxazinan-3-yl)ethyl)phenyl)pyrimidine-2-carboxamide] | > 50 | > 50 | 1.7 | < 100 | 94.1 | 0.0042 | 12.5 | 2.4
3 | C[C@@H](c1ccc(-c2ccc(S(C)(=O)=O)cn2)cc1)N1CC[C@](CC(C)(C)O)(c2ccccc2)OC1=O [EXAMPLE 186, (S)-6-(2-Hydroxy-2-methyl-propyl)-3-{(S)-1-[4-(5-methanesulfonyl-pyridin-2-yl)-phenyl]-ethyl}-6-phenyl-[1,3]oxazinan-2-one] | > 50 | > 50 | 0.9 | < 100 | 95.2 | – | 48.6 | –
4 | C[C@@H](c1ccc(-c2ccc(C(=O)NC3CC3)cn2)cc1)N1CC[C@](CC(C)(C)O)(c2ccccc2)OC1=O [EXAMPLE 161, N-cyclopropyl-6-(4-((S)-1-((S)-6-(2-hydroxy-2-methylpropyl)-2-oxo-6-phenyl-1,3-oxazinan-3-yl)ethyl)phenyl)nicotinamide] | > 50 | 36 | 1.1 | < 100 | 95.1 | 0.0039 | 10.5 | –
5 | Cc1nc(C)c(-c2ccc([C@H](C)N3CC[C@](CC(C)(C)O)(c4ccccc4)OC3=O)cc2)s1 [EXAMPLE 176, 3-{(S)-1-[4-(2,4-Dimethyl-thiazol-5-yl)-phenyl]-ethyl}-(S)-6-(2-hydroxy-2-methyl-propyl)-6-phenyl-[1,3]oxazinan-2-one] | 7.5 | 6 | – | – | – | – | 7.9 | –
6 | C[C@@H](c1ccc(-c2cnn(C)c2)cc1)N1CC[C@](CC(C)(C)O)(c2ccccc2)OC1=O [EXAMPLE 178, (S)-6-(2-Hydroxy-2-methyl-propyl)-3-{(S)-1-[4-(1-methyl-1H-pyrazol-4-yl)-phenyl]-ethyl}-6-phenyl-[1,3]oxazinan-2-one] | > 50 | 21.3 | – | – | – | – | > 50 | –
7 | C[C@@H](c1ccc(-c2ccc([S+](C)[O-])nc2)cc1)N1CC[C@](CC(C)(C)O)(c2ccccc2)OC1=O (stereo partly drawn) [EXAMPLE 182, (S)-6-(2-Hydroxy-2-methyl-propyl)-3-{(S)-1-[4-(6-methanesulfinyl-pyridin-3-yl)-phenyl]-ethyl}-6-phenyl-[1,3]oxazinan-2-one] | > 50 | > 50 | – | – | – | – | > 50 | –
8 | C[C@@H](c1ccc(-c2cc([S+](C)[O-])ccn2)cc1)N1CC[C@](CC(C)(C)O)(c2ccccc2)OC1=O (stereo partly drawn) [EXAMPLE 184, (S)-6-(2-Hydroxy-2-methyl-propyl)-3-{(S)-1-[4-(4-methanesulfinyl-pyridin-2-yl)-phenyl]-ethyl}-6-phenyl-[1,3]oxazinan-2-one] | > 50 | > 50 | – | – | – | – | > 50 | –
9 | C[C@@H](c1ccc(-c2ccc(S(C)(=O)=O)nc2)cc1)N1CC[C@](CC(C)(C)O)(c2ccccc2)OC1=O [EXAMPLE 183, (S)-6-(2-Hydroxy-2-methyl-propyl)-3-{(S)-1-[4-(6-methanesulfonyl-pyridin-3-yl)-phenyl]-ethyl}-6-phenyl-[1,3]oxazinan-2-one] | > 50 | 45.7 | 0.93 | < 100 | 96.4 | – | 47.4 | –
10 | C[C@@H](c1ccc(-c2ccnc(S(C)(=O)=O)c2)cc1)N1CC[C@](CC(C)(C)O)(c2ccccc2)OC1=O [EXAMPLE 187, (S)-6-(2-Hydroxy-2-methyl-propyl)-3-{(S)-1-[4-(2-methanesulfonyl-pyridin-4-yl)-phenyl]-ethyl}-6-phenyl-[1,3]oxazinan-2-one] | > 50 | 25.9 | – | – | – | – | > 50 | –

Results, then the compound that gave them:

Row | IC50 [1] [µM] | IC50 [2] [µM] | IC50 [3, 6] [nM] | IC50 [3, 7] [nM] | inhibition at 0.1 µM [3] [%] | IC50 [4] [µM] | IC50 [5] [µM] | Shift [4] | Structure (SMILES)
11 | 5.2 | 4.5 | 2.8 | < 100 | 90 | 0.0181 | 3.6 | – | C[C@@H](c1ccc(-c2nc(C(=O)NC(C)(C)C)cs2)cc1)N1CC[C@](CC(C)(C)O)(c2ccccc2)OC1=O [EXAMPLE 22, N-tert-butyl-2-(4-((S)-1-((S)-6-(2-hydroxy-2-methylpropyl)-2-oxo-6-phenyl-1,3-oxazinan-3-yl)ethyl)phenyl)thiazole-4-carboxamide]
12 | > 10 | > 10 | 1.8 | < 100 | 92.1 | 0.0105 | > 10 | – | C[C@@H](c1ccc(-c2ncc(F)cn2)cc1)N1CC[C@](CC(C)(C)O)(c2ccccc2)OC1=O [EXAMPLE 13, (S)-3-((S)-1-(4-(5-fluoropyrimidin-2-yl)phenyl)ethyl)-6-(2-hydroxy-2-methylpropyl)-6-phenyl-1,3-oxazinan-2-one]
13 | 8.7 | > 50 | 1 | < 100 | 91.6 | 0.0034 | 3.7 | 3.5 | C[C@@H](c1ccc(-c2ccc(C(=O)NC3CC3)nn2)cc1)N1CC[C@](CC(C)(C)C#N)(c2ccccc2)OC1=O [EXAMPLE 11, 6-(4-((S)-1-((R)-6-(2-cyano-2-methylpropyl)-2-oxo-6-phenyl-1,3-oxazinan-3-yl)ethyl)phenyl)-N-cyclopropylpyridazine-3-carboxamide]
14 | 34.9 | 21.2 | 2.5 | < 100 | 93.6 | 0.0075 | 14.5 | – | C[C@@H](c1ccc(-c2ccc(C(=O)NC3CC3)nn2)cc1)N1CC[C@](CC(C)(C)O)(c2ccccc2)OC1=O [EXAMPLE 10, N-cyclopropyl-6-(4-((S)-1-((S)-6-(2-hydroxy-2-methylpropyl)-2-oxo-6-phenyl-1,3-oxazinan-3-yl)ethyl)phenyl)pyridazine-3-carboxamide]
15 | 4.5 | 2.3 | 1 | < 100 | 95 | 0.0174 | 1.7 | 17.5 | CCOc1ncc(-c2ccc([C@H](C)N3CC[C@](CC(C)(C)O)(c4ccccc4)OC3=O)cc2)cc1C [EXAMPLE 160, (S)-3-((S)-1-(4-(6-ethoxy-5-methylpyridin-3-yl)phenyl)ethyl)-6-(2-hydroxy-2-methylpropyl)-6-phenyl-1,3-oxazinan-2-one]
16 | 24.9 | > 50 | 0.8 | < 100 | 97.9 | 0.0055 | 6.1 | 6.9 | C[C@@H](c1ccc(-c2cnc(C(=O)NC3CC3)nc2)cc1)N1CC[C@](CC(C)(C)C#N)(c2ccccc2)OC1=O [EXAMPLE 16, 5-(4-((S)-1-((R)-6-(2-cyano-2-methylpropyl)-2-oxo-6-phenyl-1,3-oxazinan-3-yl)ethyl)phenyl)-N-cyclopropylpyrimidine-2-carboxamide]
17 | 45.3 | 17.8 | 2.2 | < 100 | 94 | 0.0057 | 5.9 | 2.5 | C[C@@H](c1ccc(-c2cnc(C(=O)NC(C)(C)C)nc2)cc1)N1CC[C@](CC(C)(C)O)(c2ccccc2)OC1=O [EXAMPLE 17, N-tert-butyl-5-(4-((S)-1-((S)-6-(2-hydroxy-2-methylpropyl)-2-oxo-6-phenyl-1,3-oxazinan-3-yl)ethyl)phenyl)pyrimidine-2-carboxamide]
18 | 16.8 | 15.1 | – | – | – | – | 7.9 | – | CCNC(=O)c1ccc(-c2ccc([C@H](C)N3CC[C@](CC(C)(C)O)(c4ccccc4)OC3=O)cc2)cn1 [EXAMPLE 168, 5-(4-{(S)-1-[(S)-6-(2-Hydroxy-2-methyl-propyl)-2-oxo-6-phenyl-[1,3]oxazinan-3-yl]-ethyl}-phenyl)-pyridine-2-carboxylic acid ethylamide]
19 | 7.8 | 5.6 | – | – | – | – | 8.2 | – | Cc1nc(-c2ccc([C@H](C)N3CC[C@](CC(C)(C)O)(c4ccccc4)OC3=O)cc2)sc1C [EXAMPLE 181, (S)-3-{1-[4-(4,5-Dimethyl-thiazol-2-yl)-phenyl]-ethyl}-6-(2-hydroxy-2-methyl-propyl)-6-phenyl-[1,3]oxazinan-2-one]
20 | 28.4 | 45.2 | – | – | – | – | 5.9 | – | CNC(=O)c1ccc(-c2ccc([C@H](C)N3CC[C@](CC(C)(C)O)(c4ccccc4)OC3=O)cc2)cn1 [EXAMPLE 169, 5-(4-{(S)-1-[(S)-6-(2-Hydroxy-2-methyl-propyl)-2-oxo-6-phenyl-[1,3]oxazinan-3-yl]-ethyl}-phenyl)-pyridine-2-carboxylic acid methylamide]
